Read-outs that look alike come from different tables or passages of the source.
Key:
Type in all cases: biochemical
CDK2/CCNE1 = CDK2/CCNE1 (Homo sapiens, UniProt P24941); assay: CDK2 homogeneous time-resolved fluorescence (HTRF) kinase assay; conditions: CDK2/CCNE
Procedure, shortened: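 IC50 derived from 11-point, half-log dilutions (usually top 10 μM) of compound, 1% DMSO. Kinase (3 nM CDK2/CCNE1) was preincubated with compound 20 min, then phosphorylated 50 nM ULight-4E-BP1 peptide at 1 mM ATP for 60 min, 23 °C. Europium-antibody TR-FRET read after EDTA stop.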

CDK1/CCNB1 = CDK1/CCNB1 (Homo sapiens, UniProt P06493); assay: CDK1 homogeneous time-resolved fluorescence (HTRF) kinase assay; conditions: >250 nM; CDK1/CCNB; read-out: CDK1/CCNB IC50 >250 nM
Sequence of CDK1/CCNB1 (P06493 whole entry): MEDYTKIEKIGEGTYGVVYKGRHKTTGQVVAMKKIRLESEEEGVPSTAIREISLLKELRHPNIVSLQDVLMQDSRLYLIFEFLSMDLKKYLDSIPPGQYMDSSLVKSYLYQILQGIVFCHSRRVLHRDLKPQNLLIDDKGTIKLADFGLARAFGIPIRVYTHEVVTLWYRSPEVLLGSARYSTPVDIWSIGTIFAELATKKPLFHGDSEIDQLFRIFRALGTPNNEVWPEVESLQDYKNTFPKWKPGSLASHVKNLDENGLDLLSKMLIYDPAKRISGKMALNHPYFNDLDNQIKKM
Sequence of CDK1/CCNB1 (P14635 whole entry partner): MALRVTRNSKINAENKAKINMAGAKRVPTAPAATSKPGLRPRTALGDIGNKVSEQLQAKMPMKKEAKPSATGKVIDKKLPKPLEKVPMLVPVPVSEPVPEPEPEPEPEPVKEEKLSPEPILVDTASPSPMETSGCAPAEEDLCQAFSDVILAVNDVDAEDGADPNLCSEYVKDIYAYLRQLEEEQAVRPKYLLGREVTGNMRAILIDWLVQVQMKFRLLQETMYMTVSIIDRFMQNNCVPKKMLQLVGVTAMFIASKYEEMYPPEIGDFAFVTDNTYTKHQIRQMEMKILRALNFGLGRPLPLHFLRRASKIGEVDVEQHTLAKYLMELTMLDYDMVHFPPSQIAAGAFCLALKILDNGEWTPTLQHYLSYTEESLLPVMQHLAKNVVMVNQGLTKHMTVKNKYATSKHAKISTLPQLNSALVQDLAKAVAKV
Procedure, shortened: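 Read-out: TR-FRET (Eu anti-phospho-4E-BP1 Thr37/46 antibody, 2 nM; 665 nm or 665/615 ratio) after 60 min phosphorylation of 50 nM ULight-peptide by 0.5 nM CDK1/CCNB1 at 1 mM ATP, 23 °C. Compound preincubated 20 min with enzyme; 1% DMSO.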

CDK4/CCND3 = CDK4/CCND3 (Homo sapiens, UniProt P11802); assay: CDK4 homogeneous time-resolved fluorescence (HTRF) kinase assay; conditions: CDK4/CCND
Sequence of CDK4/CCND3 (P11802 whole entry): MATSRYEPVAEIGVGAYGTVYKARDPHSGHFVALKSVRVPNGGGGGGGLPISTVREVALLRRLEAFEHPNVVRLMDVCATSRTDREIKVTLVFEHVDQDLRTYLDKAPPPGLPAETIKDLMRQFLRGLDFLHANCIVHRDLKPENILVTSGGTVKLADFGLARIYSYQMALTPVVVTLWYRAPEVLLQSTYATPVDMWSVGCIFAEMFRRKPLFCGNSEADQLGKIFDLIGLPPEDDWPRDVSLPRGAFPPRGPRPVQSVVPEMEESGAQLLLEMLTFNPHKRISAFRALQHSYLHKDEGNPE
Sequence of CDK4/CCND3 (P30281 whole entry partner): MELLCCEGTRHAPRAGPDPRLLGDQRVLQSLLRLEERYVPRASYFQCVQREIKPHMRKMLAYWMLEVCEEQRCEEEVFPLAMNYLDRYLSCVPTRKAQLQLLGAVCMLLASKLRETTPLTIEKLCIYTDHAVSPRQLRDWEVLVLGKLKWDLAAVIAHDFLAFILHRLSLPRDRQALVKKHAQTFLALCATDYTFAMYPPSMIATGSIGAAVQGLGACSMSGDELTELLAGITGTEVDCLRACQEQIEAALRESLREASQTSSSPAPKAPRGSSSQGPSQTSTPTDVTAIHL
Procedure, shortened: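 TR-FRET read (665 nm, or 665/615 ratio) of 4E-BP1 Thr37/46 phosphorylation by 1.5 nM CDK4/CCND3 at 1 mM ATP, 50 nM ULight peptide, 1% DMSO. Reaction ran 60 min at 23 °C after 20 min compound–enzyme preincubation. IC50 from 11-point half-log dilutions, top 10 μM.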

CDK6/CCND1 = CDK6/CCND1 (Homo sapiens, UniProt Q00534); assay: CDK6 homogeneous time-resolved fluorescence (HTRF) kinase assay; conditions: CDK6/CCND, 1 mM ATP
Sequence of CDK6/CCND1 (Q00534 whole entry): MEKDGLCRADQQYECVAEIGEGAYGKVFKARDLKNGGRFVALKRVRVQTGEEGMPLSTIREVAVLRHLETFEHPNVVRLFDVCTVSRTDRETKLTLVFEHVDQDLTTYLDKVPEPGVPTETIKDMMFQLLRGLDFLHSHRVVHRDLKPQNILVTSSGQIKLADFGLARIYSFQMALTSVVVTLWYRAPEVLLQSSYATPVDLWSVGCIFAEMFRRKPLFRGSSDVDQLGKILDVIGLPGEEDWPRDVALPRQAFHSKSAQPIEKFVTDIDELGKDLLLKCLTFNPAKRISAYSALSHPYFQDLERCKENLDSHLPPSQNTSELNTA
Sequence of CDK6/CCND1 (P24385 whole entry partner): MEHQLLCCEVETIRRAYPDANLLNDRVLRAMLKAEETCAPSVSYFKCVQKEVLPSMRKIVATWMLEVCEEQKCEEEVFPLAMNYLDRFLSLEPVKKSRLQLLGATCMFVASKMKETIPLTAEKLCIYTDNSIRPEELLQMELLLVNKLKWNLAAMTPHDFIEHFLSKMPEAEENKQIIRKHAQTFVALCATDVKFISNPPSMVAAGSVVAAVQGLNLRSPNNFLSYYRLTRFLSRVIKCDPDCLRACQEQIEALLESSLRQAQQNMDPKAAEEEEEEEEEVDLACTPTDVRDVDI
Procedure, shortened: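 Assay conditions: HEPES buffer containing 10 mM MgCl2, 1 mM EGTA, 2 mM DTT, 0.01% Tween 20; 1 nM CDK6/CCND1, 50 nM peptide substrate, 1 mM ATP. Detection after 60 min reaction used 2 nM europium antibody with 340 nm excitation. Potency fitted from half-log series, 11 points.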

[1] = 25-250 nM, read-out: CDK2/CCNE IC50, 25-250 nM
[2] = >250 nM, read-out: CDK4/CCND IC50, >250 nM
[3] = >250 nM, read-out: CDK6/CCND IC50, >250 nM
[4] = <25 nM, read-out: CDK2/CCNE IC50, <25 nM
[5] = 25-250 nM, read-out: CDK4/CCND IC50, 25-250 nM
[6] = 25-250 nM, read-out: CDK6/CCND IC50, 25-250 nM

IC50 (CDK2/CCNE1; [1]) | IC50 (CDK1/CCNB1) | IC50 (CDK4/CCND3; [2]) | IC50 (CDK6/CCND1; [3]) | IC50 (CDK2/CCNE1; [4]) | IC50 (CDK4/CCND3; [5]) | IC50 (CDK6/CCND1; [6]) | SMILES
25 to 250 nM | > 250 nM | > 250 nM | > 250 nM | – | – | – | O=c1ccc(C#Cc2nccc3cnc(Nc4cnc(O)c(N5CCNCC5)c4)cc23)n[nH]1 [Ex 886, 6-((7-((6-hydroxy-5-(piperazin-1-yl)pyridin-3-yl)amino)-2,6-naphthyridin-1-yl)ethynyl)pyridazin-3(2H)-one]
25 to 250 nM | > 250 nM | > 250 nM | > 250 nM | – | – | – | Cc1c(-c2nccc3cnc(Nc4cnc(O)c(N5CCNCC5)c4)cc23)ccc2c1cnn2CC(C)(C)O [Ex 888, 5-((5-(1-(2-hydroxy-2-methylpropyl)-4-methyl-1H-indazol-5-yl)-2,6-naphthyridin-3-yl)amino)-3-(piperazin-1-yl)pyridin-2-ol]
25 to 250 nM | > 250 nM | > 250 nM | > 250 nM | – | – | – | CC#Cc1nccc2cnc(Nc3ccc(S(=O)(=O)Nc4nc(OC)cc(OC)n4)cc3)cc12 [Ex 890, N-(4,6-dimethoxypyrimidin-2-yl)-4-((5-(prop-1-yn-1-yl)-2,6-naphthyridin-3-yl)amino)benzenesulfonamide]
25 to 250 nM | > 250 nM | > 250 nM | > 250 nM | – | – | – | CC#Cc1nccc2cnc(Nc3ccc(S(=O)(=O)Nc4nccc(C(F)(F)F)n4)cc3)cc12 [Ex 891, 4-((5-(prop-1-yn-1-yl)-2,6-naphthyridin-3-yl)amino)-N-(4-(trifluoromethyl)pyrimidin-2-yl)benzenesulfonamide]
– | > 250 nM | > 250 nM | > 250 nM | < 25 nM | – | – | Cc1c(-c2nccc3cnc(Nc4ccc(S(=O)(=O)Nc5nccc(N6CCN(C)CC6)n5)cc4)cc23)ccc2c1cnn2CC(C)(C)O [Ex 892, 4-((5-(1-(2-hydroxy-2-methylpropyl)-4-methyl-1H-indazol-5-yl)-2,6-naphthyridin-3-yl)amino)-N-(4-(4-methylpiperazin-1-yl)pyrimidin-2-yl)benzenesulfonamide]
– | > 250 nM | > 250 nM | > 250 nM | < 25 nM | – | – | Cc1c(-c2nccc3cnc(Nc4ccc(S(=O)(=O)Nc5nccc(N6CCOCC6)n5)cc4)cc23)ccc2c1cnn2CC(C)(C)O [Ex 893, 4-((5-(1-(2-hydroxy-2-methylpropyl)-4-methyl-1H-indazol-5-yl)-2,6-naphthyridin-3-yl)amino)-N-(4-morpholinopyrimidin-2-yl)benzenesulfonamide]
25 to 250 nM | > 250 nM | > 250 nM | > 250 nM | – | – | – | Cc1c(-c2nccc3cnc(Nc4ccc(S(=O)(=O)Nc5ncc(Cl)cn5)cc4)cc23)ccc2c1cnn2CC(C)(C)O [Ex 895, N-(5-chloropyrimidin-2-yl)-4-((5-(1-(2-hydroxy-2-methylpropyl)-4-methyl-1H-indazol-5-yl)-2,6-naphthyridin-3-yl)amino)benzenesulfonamide]
– | > 250 nM | – | – | < 25 nM | 25 to 250 nM | 25 to 250 nM | Cc1cnc(NS(=O)(=O)c2ccc(Nc3cc4c(-c5ccc6c(cnn6CC(C)(C)O)c5C)nccc4cn3)cc2)nc1 [Ex 896, 4-((5-(1-(2-hydroxy-2-methylpropyl)-4-methyl-1H-indazol-5-yl)-2,6-naphthyridin-3-yl)amino)-N-(5-methylpyrimidin-2-yl)benzenesulfonamide]
– | > 250 nM | > 250 nM | – | < 25 nM | – | 25 to 250 nM | COc1ccnc(NS(=O)(=O)c2ccc(Nc3cc4c(-c5ccc6c(cnn6CC(C)(C)O)c5C)nccc4cn3)cc2)n1 [Ex 897, 4-((5-(1-(2-hydroxy-2-methylpropyl)-4-methyl-1H-indazol-5-yl)-2,6-naphthyridin-3-yl)amino)-N-(4-methoxypyrimidin-2-yl)benzenesulfonamide]
– | > 250 nM | – | – | < 25 nM | 25 to 250 nM | 25 to 250 nM | Cc1ccnc(NS(=O)(=O)c2ccc(Nc3cc4c(-c5ccc6c(cnn6CC(C)(C)O)c5C)nccc4cn3)cc2)n1 [Ex 908, 4-((5-(1-(2-hydroxy-2-methylpropyl)-4-methyl-1H-indazol-5-yl)-2,6-naphthyridin-3-yl)amino)-N-(4-methylpyrimidin-2-yl)benzenesulfonamide]
25 to 250 nM | > 250 nM | > 250 nM | > 250 nM | – | – | – | COc1nccc(C#Cc2nccc3cnc(Nc4ccc(S(C)(=O)=O)cc4)cc23)c1C [Ex 909, 5-((2-methoxy-3-methylpyridin-4-yl)ethynyl)-N-(4-(methylsulfonyl)phenyl)-2,6-naphthyridin-3-amine]

Second part, the compound before the results:

SMILES | IC50 (CDK2/CCNE1; [1]) | IC50 (CDK1/CCNB1) | IC50 (CDK4/CCND3; [2]) | IC50 (CDK6/CCND1; [3]) | IC50 (CDK2/CCNE1; [4]) | IC50 (CDK4/CCND3; [5]) | IC50 (CDK6/CCND1; [6])
Cc1nc[nH]c1C#Cc1nccc2cnc(Nc3ccc(S(C)(=O)=O)cc3)cc12 [Ex 883, 5-((4-methyl-1H-imidazol-5-yl)ethynyl)-N-(4-(methylsulfonyl)phenyl)-2,6-naphthyridin-3-amine] | 25 to 250 nM | > 250 nM | > 250 nM | > 250 nM | – | – | –
CC#Cc1nccc2cnc(Nc3ccc(S(=O)(=O)Nc4ncc(C)cn4)cc3)cc12 [Ex 889, N-(5-methylpyrimidin-2-yl)-4-((5-(prop-1-yn-1-yl)-2,6-naphthyridin-3-yl)amino)benzenesulfonamide] | 25 to 250 nM | > 250 nM | > 250 nM | > 250 nM | – | – | –
Cc1c(-c2nccc3cnc(Nc4ccc(S(=O)(=O)Nc5ncc(C(F)(F)F)cn5)cc4)cc23)ccc2c1cnn2CC(C)(C)O [Ex 894, 4-((5-(1-(2-hydroxy-2-methylpropyl)-4-methyl-1H-indazol-5-yl)-2,6-naphthyridin-3-yl)amino)-N-(5-(trifluoromethyl)pyrimidin-2-yl)benzenesulfonamide] | 25 to 250 nM | > 250 nM | > 250 nM | > 250 nM | – | – | –
COc1cc(OC)nc(NS(=O)(=O)c2ccc(Nc3cc4c(-c5ccc6c(cnn6CC(C)(C)O)c5C)nccc4cn3)cc2)n1 [Ex 898, N-(4,6-dimethoxypyrimidin-2-yl)-4-((5-(1-(2-hydroxy-2-methylpropyl)-4-methyl-1H-indazol-5-yl)-2,6-naphthyridin-3-yl)amino)benzenesulfonamide] | – | > 250 nM | > 250 nM | > 250 nM | < 25 nM | – | –
Cc1cc(C#Cc2nccc3cnc(Nc4ccc(S(C)(=O)=O)cc4)cc23)sn1 [Ex 899, 5-((3-methylisothiazol-5-yl)ethynyl)-N-(4-(methylsulfonyl)phenyl)-2,6-naphthyridin-3-amine] | 25 to 250 nM | > 250 nM | > 250 nM | > 250 nM | – | – | –
CS(=O)(=O)c1ccc(Nc2cc3c(C#Cc4ccc(C#N)s4)nccc3cn2)cc1 [Ex 900, 5-((7-((4-(methylsulfonyl)phenyl)amino)-2,6-naphthyridin-1-yl)ethynyl)thiophene-2-carbonitrile] | 25 to 250 nM | > 250 nM | > 250 nM | > 250 nM | – | – | –
Cc1cnc(C#Cc2nccc3cnc(Nc4ccc(S(C)(=O)=O)cc4)cc23)[nH]1 [Ex 901, 5-((5-methyl-1H-imidazol-2-yl)ethynyl)-N-(4-(methylsulfonyl)phenyl)-2,6-naphthyridin-3-amine] | 25 to 250 nM | > 250 nM | > 250 nM | > 250 nM | – | – | –
CC#Cc1nccc2cnc(Nc3ccc(S(=O)(=O)Nc4nccc(C)n4)cc3)cc12 [Ex 905, N-(4-methylpyrimidin-2-yl)-4-((5-(prop-1-yn-1-yl)-2,6-naphthyridin-3-yl)amino)benzenesulfonamide] | 25 to 250 nM | > 250 nM | > 250 nM | > 250 nM | – | – | –
COc1cnc(NS(=O)(=O)c2ccc(Nc3cc4c(-c5ccc6c(cnn6CC(C)(C)O)c5C)nccc4cn3)cc2)nc1 [Ex 906, 4-((5-(1-(2-hydroxy-2-methylpropyl)-4-methyl-1H-indazol-5-yl)-2,6-naphthyridin-3-yl)amino)-N-(5-methoxypyrimidin-2-yl)benzenesulfonamide] | – | > 250 nM | > 250 nM | > 250 nM | < 25 nM | – | –
Cc1c(-c2nccc3cnc(Nc4ccc(S(=O)(=O)Nc5nccc(C(F)(F)F)n5)cc4)cc23)ccc2c1cnn2CC(C)(C)O [Ex 907, 4-((5-(1-(2-hydroxy-2-methylpropyl)-4-methyl-1H-indazol-5-yl)-2,6-naphthyridin-3-yl)amino)-N-(4-(trifluoromethyl)pyrimidin-2-yl)benzenesulfonamide] | – | > 250 nM | > 250 nM | > 250 nM | < 25 nM | – | –

Reference: US20260325533A1, “CDK INHIBITOR COMPOUNDS” (ALEKSIA THERAPEUTICS, INC., priority 2023, published 2026)
